This note sets out measurements from patent US20240158383A1, “RIBONUCLEOTIDE REDUCTASE (RNR) INHIBITORS AND USES THEREOF” (Boundless Bio, Inc., priority 2021, published 2024).

Experiment [1] relates to pCHK1 (S345) in Colo320 DM cells. The experiment can be described thus: CHK1 cellular activity (phospho-CHK1 AlphaLisa). It is filed as cell-based, human. Conditions: Homo sapiens, COLO 320DM, 16 h, compound overnight (approximately 16 hours). The gist of the method:
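Colo320 DM cells (50,000/well, RPMI-1640 with 10% FBS) were treated with compound overnight (~16 h) at 37 °C, final DMSO <0.5%. Lysates were assayed for pCHK1 (S345) by AlphaLisa SureFire, a replication-stress marker downstream of RNR inhibition.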

The target in experiment [2] is RNR (RNR1:RNR2) (Homo sapiens (Human), UniProt P23921+P31350). Briefly: RNR enzyme activity, rapid-fire mass spectrometry (RFMS) assay. It is filed as biochemical. Conditions: [RNR] 50 nM, 1:1 RNR1:RNR2, [CDP] 5 μM, [ATP] 1 mM, 37° C., 45 min. In short, it runs like this:
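RNR1:RNR2 (1:1, 50 nM final) was preincubated 15 min at room temperature with compound (10 nM–30 μM), then reacted 45 min at 37° C. with 5 μM CDP and 1 mM ATP, without NADPH. Reactions were stopped with 6% formic acid and read by RapidFire mass spectrometry.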

Sequence of RNR (RNR1:RNR2) (P23921 whole entry): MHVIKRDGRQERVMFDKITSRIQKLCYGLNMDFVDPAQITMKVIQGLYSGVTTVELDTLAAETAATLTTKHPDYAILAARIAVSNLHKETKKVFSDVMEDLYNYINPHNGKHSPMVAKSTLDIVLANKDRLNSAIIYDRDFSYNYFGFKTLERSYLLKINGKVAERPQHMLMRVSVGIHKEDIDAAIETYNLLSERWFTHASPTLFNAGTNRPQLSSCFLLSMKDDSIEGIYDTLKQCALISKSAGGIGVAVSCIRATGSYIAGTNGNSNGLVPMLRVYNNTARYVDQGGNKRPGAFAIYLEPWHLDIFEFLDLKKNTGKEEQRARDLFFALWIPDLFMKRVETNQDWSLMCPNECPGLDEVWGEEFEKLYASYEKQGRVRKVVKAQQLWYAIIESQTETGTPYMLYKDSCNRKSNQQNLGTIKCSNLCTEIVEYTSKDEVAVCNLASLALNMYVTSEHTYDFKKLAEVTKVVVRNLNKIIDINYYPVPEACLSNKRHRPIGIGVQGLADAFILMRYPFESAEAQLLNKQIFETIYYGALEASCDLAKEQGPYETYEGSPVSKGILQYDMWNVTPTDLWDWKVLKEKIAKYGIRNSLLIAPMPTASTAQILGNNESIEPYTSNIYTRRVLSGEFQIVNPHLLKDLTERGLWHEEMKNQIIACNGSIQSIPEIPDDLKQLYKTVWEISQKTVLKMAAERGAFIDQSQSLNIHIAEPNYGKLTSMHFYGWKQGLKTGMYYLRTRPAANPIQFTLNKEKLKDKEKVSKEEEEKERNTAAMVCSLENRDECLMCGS
Sequence of RNR (RNR1:RNR2) (P31350 whole entry): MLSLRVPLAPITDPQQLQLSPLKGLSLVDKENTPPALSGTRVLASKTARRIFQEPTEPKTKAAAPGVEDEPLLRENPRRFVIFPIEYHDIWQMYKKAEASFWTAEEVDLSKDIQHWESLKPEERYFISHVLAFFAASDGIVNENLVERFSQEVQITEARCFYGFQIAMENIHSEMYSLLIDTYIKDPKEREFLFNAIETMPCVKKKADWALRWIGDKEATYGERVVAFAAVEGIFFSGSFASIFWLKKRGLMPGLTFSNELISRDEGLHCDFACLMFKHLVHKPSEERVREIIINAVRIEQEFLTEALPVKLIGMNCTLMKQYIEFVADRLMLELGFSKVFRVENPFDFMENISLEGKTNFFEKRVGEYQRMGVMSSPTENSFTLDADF

`Cc1ccc(F)c([C@@H](C)[C@H](NS(=O)(=O)c2ccc(Cl)c(C(C)(O)C(=O)N(C)C)c2)c2nn[nH]n2)c1C` (stereo partly drawn) [Example 59, 2-(2-chloro-5-(N-((1S,2R)-2-(6-fluoro-2,3-dimethylphenyl)-1-(2H-tetrazol-5-yl)propyl)sulfamoyl)phenyl)-2-hydroxy-N,N-dimethylpropanamide]: the IC50 – broadly, the concentration that gives 50% inhibition – is 50 to 100 µM in experiment [1] and 0.1 to 1 µM in experiment [2].
Regarding `Cc1ccc(Cl)c(S(=O)(=O)N[C@H](c2nn[nH]n2)[C@H](C)c2c(F)ccc(C)c2C)c1` [Example 60, 2-chloro-N-((1S,2R)-2-(6-fluoro-2,3-dimethylphenyl)-1-(2H-tetrazol-5-yl)propyl)-5-methylbenzenesulfonamide], the IC50 is 50 to 100 µM in experiment [1] and 1 to 5 µM in experiment [2].
Turning to `Cc1ccc(F)c([C@@H](C)[C@H](NS(=O)(=O)c2ccc(Cl)cc2C2CC2)c2nn[nH]n2)c1C` [Example 61, 4-chloro-2-cyclopropyl-N-((1S,2R)-2-(6-fluoro-2,3-dimethylphenyl)-1-(2H-tetrazol-5-yl)propyl)benzenesulfonamide], the IC50 in experiment [1] fell in the range of 10 to 30 µM; in experiment [2] it was 0.1 to 1 µM.
`COc1nc(Cl)ccc1S(=O)(=O)N[C@H](c1nn[nH]n1)[C@H](C)c1c(F)ccc(C)c1C` [Example 62, 6-chloro-N-((1S,2R)-2-(6-fluoro-2,3-dimethylphenyl)-1-(2H-tetrazol-5-yl)propyl)-2-methoxypyridine-3-sulfonamide]: the figures for the IC50 in experiment [1] and in experiment [2] were 10 to 30 µM and no more than 0.1 µM, respectively.
On to `COc1cc(C#N)ccc1S(=O)(=O)N[C@H](c1nn[nH]n1)[C@H](C)c1c(F)ccc(C)c1C` [Example 64, 4-cyano-N-((1S,2R)-2-(6-fluoro-2,3-dimethylphenyl)-1-(2H-tetrazol-5-yl)propyl)-2-methoxybenzenesulfonamide], for which the IC50 fell in the range of 50 to 100 µM in experiment [1] and 0.1 to 1 µM in experiment [2].
Turning to `Cc1ccc(F)c([C@@H](C)[C@H](NS(=O)(=O)c2ccc(Cl)c(C(F)(F)C(=O)N(C)C)c2)c2nn[nH]n2)c1C` [Example 72, 2-(2-chloro-5-(N-((1S,2R)-2-(6-fluoro-2,3-dimethylphenyl)-1-(2H-tetrazol-5-yl)propyl)sulfamoyl)phenyl)-2,2-difluoro-N,N-dimethylacetamide], the IC50 in experiment [1] was in the range of 50 to 100 µM; in experiment [2] it was 0.1 to 1 µM.
In the case of `COc1c(S(=O)(=O)N[C@H](c2nn[nH]n2)[C@H](C)c2c(F)ccc(C)c2C)ccc(Cl)c1F` [Example 73, 4-chloro-3-fluoro-N-((1S,2R)-2-(6-fluoro-2,3-dimethylphenyl)-1-(2H-tetrazol-5-yl)propyl)-2-methoxybenzenesulfonamide], the IC50 lay in the range of 10 to 30 µM in experiment [1] and 0.1 to 1 µM in experiment [2].
For the molecule `Cc1ccc(F)c([C@@H](C)[C@H](NS(=O)(=O)c2ccc(Cl)c3c2OCCC3)c2nn[nH]n2)c1C` [Example 74, 5-chloro-N-((1S,2R)-2-(6-fluoro-2,3-dimethylphenyl)-1-(2H-tetrazol-5-yl)propyl)chromane-8-sulfonamide], the IC50 in experiment [1] is no more than 10 µM; in experiment [2], no more than 0.1 µM.
Consider `CNc1cc(Cl)ccc1S(=O)(=O)N[C@H](c1nn[nH]n1)[C@H](C)c1c(F)ccc(C)c1C` [Example 75, 4-chloro-N-((1S,2R)-2-(6-fluoro-2,3-dimethylpehnyl)-1-(2H-tetrazol-5-yl)propyl)-2-(methylamino)benzenesulfonamide], for which the IC50 in experiment [1] was in the range of 10 to 30 µM; in experiment [2], 0.1 to 1 µM.
Regarding `CNC(=O)c1cc(Cl)ccc1S(=O)(=O)N[C@H](c1nn[nH]n1)[C@H](C)c1c(F)ccc(C)c1C` [Example 76, 5-chloro-2-(N-((1S,2R)-2-(6-fluoro-2,3-dimethylphenyl)-1-(2H-tetrazol-5-yl)propyl)sulfamoyl)-N-methylbenzamide], the values for the IC50 in experiment [1] and in experiment [2] were 50 to 100 µM and 0.1 to 1 µM, respectively.
Turning to `Cc1ccc(F)c([C@@H](C)[C@H](NS(=O)(=O)c2ccc(Cl)cc2N(C)CCO)c2nn[nH]n2)c1C` [Example 77, 4-chloro-N-((1S,2R)-2-(6-fluoro-2,3-dimethylphenyl)-1-(2H-tetrazol-5-yl)propyl)-2-((2-hydroxyethyl)(methyl)amino)benzenesulfonamide], the IC50 is 10 to 30 µM in experiment [1] and no more than 0.1 µM in experiment [2].
As to `Cc1ccc(F)c([C@@H](C)[C@H](NS(=O)(=O)c2ccc(Cl)cc2N2CCOCC2)c2nn[nH]n2)c1C` [Example 78, 4-chloro-N-((1S,2R)-2-(6-fluoro-2,3-dimethylphenyl)-1-(2H-tetrazol-5-yl)propyl)-2-morpholinobenzenesulfonamide], the IC50 is 30 to 50 µM in experiment [1] and 0.1 to 1 µM in experiment [2].
Regarding `Cc1ccc(F)c([C@@H](C)[C@H](NS(=O)(=O)c2ccc(Cl)cc2N2CCN(C)CC2)c2nn[nH]n2)c1C` [Example 79, 4-chloro-N-((1S,2R)-2-(6-fluoro-2,3-dimethylphenyl)-1-(2H-tetrazol-5-yl)propyl)-2-(4-methylpiperazin-1-yl)benzenesulfonamide], the IC50 in experiment [1] is 50 to 100 µM; in experiment [2], 0.1 to 1 µM.
Take `Cc1ccc(F)c([C@@H](C)[C@H](NS(=O)(=O)c2ccc(Cl)cc2N2CCCCC2)c2nn[nH]n2)c1C` [Example 80, 4-chloro-N-((1S,2R)-2-(6-fluoro-2,3-dimethylphenyl)-1-(2H-tetrazol-5-yl)propyl)-2-(piperidin-1-yl)benzensulfonamide]: the results for the IC50 in experiment [1] and in experiment [2] were 30 to 50 µM and 0.1 to 1 µM, respectively.
